# Measurements published in US7728174B2, “Continuous hydrogenation processes for the preparation of xylylenediamines” (BASF SE, priority 2005, dated 2010).
# Experiment: solubility of IPN in ammonia, meta-xylylenediamine and their mixtures
# Assay type: physicochemical
structure (smiles),measurement,setting,value
"N#Cc1cccc(C#N)c1 [IPN, 1,3-dicyanobenzene]",solubility of IPN in the mixture,"Example 1 mixture: 178 g/h circulation stream [13] and 94 g/h fresh ammonia, at 60° C.",about 30 % by weight
same,solubility of IPN in the mixture,"Example 2 mixture: 320 g/h circulation stream [13] and 40 g/h fresh ammonia, at 60° C.",about 25 % by weight
same,solubility of IPN,"in MXDA, at 70° C.",approx. 20 % by weight
same,solubility of IPN,"in NH3, at 60° C.",approx. 44 % by weight
same,solubility of IPN,"in a mixture of approximately equal parts by mass of meta-xylylenediamine and liquid ammonia, at 60° C.",approx. 30 % by weight
same,solubility of IPN,"in meta-xylylenediamine, at 60° C.",approx. 15 % by weight
